{
  "source": "patent US20110300532A1",
  "about": "“CONTROL OF THE TOXICITY OF GOLD NANOPARTICLES” (priority 2009, published 2011)",
  "key": {"HeLa cells [1]": {"system": "HeLa cells", "conditions": "for cell survival: cells pretreated with antioxidant 3 hours, washed, post-treated with 100 μM Au1.4MS 48 hours", "method": "A) untreated cells. B) cells treated with Au1.4MS for 48 hours. C) cells pretreated with antioxidant/reducing agent for 3 hours, washed and post-treated with Au1.4MS for 48 hours. D) Au1.4MS pre-treated with antioxidant/reducing agent for 3 hours, mixture added to cells for 48 hours. E) cells pre-treated with antioxidant/reducing agent for 3 hours, then added Au1.4MS and incubated for 48 hours. F) Antioxidant/reducing agent mixed with Au1.4MS and mixture immediately added to cells and incubated for 48 hours. G) cells incubated with antioxidant/reducing agent for 48 hours.\nHeLa cells were plated in 96-well microtiter plates at initial densities of 2,000 in 100 μL and were incubated for 72 hours before adding reagents. Fresh medium containing nanoparticles and/or antioxidants (reducing agents) was added to each well and cells were incubated for another 48 hours. […] Antioxidants/Reducing agents were freshly prepared by dissolving the powders in H2O to 200 mM and further diluted in fresh cell culture medium to working concentration."}, "HeLa cells [2]": {"system": "HeLa cells", "test": "Flow cytometric determination of oxidative stress (CM-H2DCFDA)", "format": "cell-based, human", "method": "Applicant also studied the oxidative stress and mitochondrial damage induced by Au1.4MS nanoparticles. […] Applicant used 0.3% H2O2 as a positive control.\nFlow cytometric determination of oxidative stress. HeLa cells were plated in 6-well plates at initial densities of 40,000 in 2 mL grown for 72 hours. Fresh medium containing nanoparticles (100 μM Au1.4MS, 1000 μM Au1.1GSH and Au15MS) was added to the cells and incubated for 0, 6, 12, 18, 24, 48 hours. All cell-material combinations were set up in triplicates. After the AuNP incubation, cells were trypsinized and rinsed with PBS. After rinsing cells were suspended in a buffer containing 5-(and-6)-chloromethyl-2′7′-dichlorodihydrofluorescein diacetate acetyl ester (CM-H2DCFDA) (Molecuar Probes/Invitrogen). Cells were incubated for 30 minutes at 37° C. as described by the manufacturer. Shortly, 50 μg CM-H2DCFDA powder was dissolved in 100 μL ethanol as stock solution and was kept in −20° C. For cell assays the stock solution was freshly diluted in PBS to a final working concentration of 2.5 μM. Cells incubated with 0.3% H2O2 for 30 minutes served as positive control. 20,000 cells were analysed using FACSCalibur or FACSCanto flow cytometers and CELL-Quest software (Becton-Dickinson)."}, "HeLa cells [3]": {"system": "HeLa cells", "test": "Inhibition of apoptosis by caspase inhibitor Z-VAD-fmk (cell survival)", "format": "cell-based, human", "method": "Apoptosis is predominantly caspase-mediated and can be blocked by Z-VAD-fmk whereas necrosis cannot.\nInhibition of apoptosis. HeLa cells were plated in 96-well microtiter plates at initial densities of 2,000 in 100 μL and were incubated for 72 hours before adding reagents. Cells were left untreated or were pre-treated with the caspase inhibitor Z-VAD-fmk for 3 hours (BACHEM N1510). A stock solution of 100 mM Z-VAD-fmk in DMSO was prepared and kept at −20° C. Working solution was freshly prepared by diluting the stock solution in fresh cell culture medium."}, "HeLa cells [4]": {"system": "HeLa cells", "test": "Cell cycle and DNA content measurement using flow cytometry (propidium iodide)", "format": "cell-based, human", "method": "The protein p53 controls both the G2/M and the G1 cell cycle checkpoints and mediates reversible growth arrest in apoptotic fibroblasts (cf. M. Agarwal, A. Agarwal, W. Taylor, G. Stark, Proc Natl Acad Sci USA 1995, 92, 8493). To gain insight into the cell cycle progression in the context of Au1.4MS cytotoxicity, applicant measured the cellular DNA content and mitotic index of HeLa cells. […] Cells staining intermediary reside in S phase. When the HeLa cells were treated with staurosporine (curve 2) to trigger apoptosis the relative proportion of cells in G2 phase increased to 50% indicating a G2/M block of the cells. Together with the sub G1 peak and the low fluorescent peak indicating DNA fragments this pattern was typical of apoptosis. […] This is further corroborated by the fact that caspase activation, which is likewise a late event in apoptosis, but not in necrosis, was low in Au1.4MS treated cells and furthermore, that caspase inhibition by Z-VADfmk enhanced cell viability in staurosporine treated (apoptotic) cells, but not in Au1.4MS treated (secondary necrotic) cells (FIG. 4, 5).\nCell cycle and DNA content measurement using flow cytometry. HeLa cells were plated in 6-well plates and incubated for 72 hours before adding nanoparticles. […] 20,000 cells were analysed using FACSCalibur or FACSCanto flow cytometers and CELL-Quest software (Becton-Dickinson)."}, "caspase 3/7": {"system": "caspase 3/7", "test": "Fluorogenic caspase activity determination (Apo-ONE caspase-3/7 assay)", "format": "cell-based, human", "method": "To confirm that the cells underwent necrosis instead of apoptosis applicant measured the caspase 3/7 activity (FIG. 4) using the fluorogenic substrate rhodamine 110 bis-(N-CBZ-L-aspartyl-L-glutamyl-L-valyl-aspartic acid amide), Z-DEVD-R110. Caspase 3/7 enzymes cleave carboxy-terminal to the aspartate in the DEVD peptide thus converting the substrate into fluorescent rhodamine. […] Thereafter caspase 3/7 activity declined until the end of the experiment at 48 hours.\nFluorogenic caspase activity determination. […] Cells were rinsed and 30 μL of medium containing 50 μM Au1.4MS was added. Untreated cells served as negative control and cells treated with 0.2 μM staurosporine served as a positive control. Apoptosis was measured using the fluorogenic caspase substrate, Apo-ONE® homogeneous caspase-3/7 assay (Promega) as described by the manufacturer. Briefly, Apo-ONE® stock solution (100fold working concentration) was […] in Apo-One® buffer and 30 μL of this was added to each well and incubated at 23° C. for 3 hours. 50 μL of the clear supernatant was transferred to a black microtiter plate and measured using a Fluorostar plate fluorometer (BMG Labtech, Offenburg, Germany) at excitation wavelength 485 nm and emission wavelength 520 nm."}},
  "note": "“And” between values parts separate entries of the source, which are not always exact repeats. Equal values may be shown once. “Also recorded” adds a separate entry of the source. Read-outs that look alike come from different tables or passages of the source. Where a SMILES comes first, the peptide text is derived from it. The star is where a group is joined. Cbz = O=C(OCc1ccccc1)*; CH2F = FC*",
  "data": [
    {"smiles": "N[C@@H](CCC(=O)N[C@@H](CS)C(=O)NCC(=O)O)C(=O)O", "note": "[GSH, glutathione]", "values": [
      {"measurement": "inhibition of the cytotoxicity of 100 μM Au1.4MS", "setting": "HeLa cells [1]", "result": "partially inhibit"},
      {"measurement": "cell survival", "setting": "HeLa cells [1]; NAC 3 mM, others 1 mM", "result": 15, "unit": "%"}
    ]},
    {"smiles": "OO", "note": "[H2O2]", "values": [
      {"measurement": "oxidative stress (intracellular ROS, CM-H2DCFDA fluorescence)", "setting": "HeLa cells [2]; 0.3% for 30 minutes, positive control", "result": "strong oxidative stress; also recorded: strong ROS generation"}
    ]},
    {"smiles": "CC(=O)N[C@@H](CS)C(=O)O", "note": "[NAC, N-acetylcysteine]", "values": [
      {"measurement": "inhibition of the cytotoxicity of 100 μM Au1.4MS", "setting": "HeLa cells [1]", "result": "partially inhibit"},
      {"measurement": "cell survival", "setting": "HeLa cells [1]; NAC 3 mM, others 1 mM", "result": 7, "unit": "%"}
    ]},
    {"smiles": "O=S(=O)([O-])c1cccc(P(c2ccccc2)c2ccccc2)c1.[Na+]", "note": "[TPPMS, triphenylphosphine monosulfonate]", "values": [
      {"measurement": "increase in intracellular fluorescence (ROS)", "setting": "HeLa cells [2]; ligand alone, not shown", "result": "did not cause an increase in intracellular fluorescence"},
      {"measurement": "inhibition of the cytotoxicity of 100 μM Au1.4MS", "setting": "HeLa cells [1]; HeLa, 48 hours, NAC 3 mM, others 1 mM", "result": "partially inhibit"},
      {"measurement": "cell survival", "setting": "HeLa cells [1]; NAC 3 mM, others 1 mM", "result": 11, "unit": "%"}
    ]},
    {"smiles": "COC(=O)C[C@H](NC(=O)[C@H](C)NC(=O)[C@@H](NC(=O)OCc1ccccc1)C(C)C)C(=O)CF", "note": "[Z-VAD-fmk] (Cbz-Val-Ala-Asp(OMe)-CH2F)", "values": [
      {"measurement": "survival of staurosporin-treated HeLa cells after adding Z-VAD-fmk", "setting": "HeLa cells [3]; 32 μM Z-VAD-fmk, 48 hours", "result": "84% and 83%"},
      {"measurement": "survival of staurosporin-treated HeLa cells after adding Z-VAD-fmk", "setting": "HeLa cells [3]; 500 μM Z-VAD-fmk, 48 hours", "result": 90, "unit": "%"},
      {"measurement": "effect of Z-VAD-fmk on survival of Au1.4MS treated cells", "setting": "HeLa cells [3]; HeLa cells", "result": "did not increase the survival; also recorded: did not increase cell survival"}
    ]},
    {"smiles": "O=C1O[C@H]([C@@H](O)CO)C(O)=C1O", "note": "[ascorbic acid]", "values": [
      {"measurement": "cell survival", "setting": "HeLa cells [1]; NAC 3 mM, others 1 mM", "result": 6, "unit": "%"}
    ]},
    {"smiles": "CN[C@@H]1C[C@H]2O[C@@](C)([C@@H]1OC)n1c3ccccc3c3c4c(c5c6ccccc6n2c5c31)C(=O)NC4", "note": "[staurosporine]", "values": [
      {"measurement": "DNA content / cell cycle pattern", "setting": "HeLa cells [4]; propidium iodide flow cytometry, 100 μM Au1.4MS", "result": "hypodiploid peak in DNA content typical of G2/M arrest and apoptosis"},
      {"measurement": "relative proportion of cells in G2 phase", "setting": "HeLa cells [4]; staurosporine treated HeLa cells", "result": 50, "unit": "%"},
      {"measurement": "cell survival", "setting": "HeLa cells [3]; staurosporine alone, 48 hours", "result": 47, "unit": "%"},
      {"measurement": "incubation time of peak caspase 3/7 activity", "setting": "caspase 3/7; 0.2 μM staurosporine or 50 μM Au1.4MS", "result": 12, "unit": "h"},
      {"measurement": "Caspase 3/7 activity increase", "setting": "caspase 3/7; 0.2 μM staurosporine, HeLa", "result": 6.5, "unit": "fold"},
      {"measurement": "intracellular caspase 3/7 activity increase over background", "setting": "caspase 3/7; 0.2 μM staurosporine, within 6 hours", "result": 6, "unit": "fold"}
    ]}
  ]
}
